Test results as given in patent US11071731B2, “Allosteric modulators of the mu opioid receptor” (Chiromics, LLC, priority 2017, dated 2021).

How the values were obtained:
[1] = biological target: T1, mu opioid receptor (MOR) (Homo sapiens, UniProt P35372); experiment: Hit Hunter cAMP signaling assay (adenylyl cyclase inhibition), PAM mode with EC20 endomorphin-1; type: cell-based
[2] = biological target: T1, mu opioid receptor (MOR); experiment: PathHunter β-arrestin recruitment assay, PAM mode with EC20 endomorphin-1; type: cell-based; conditions: for EC50: read-out: β-arr. EC50
In short: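 β-Arrestin recruitment to the receptor was tracked by chemiluminescent β-galactosidase activity from complementing fragments (ED on receptor, EA on β-arrestin). Per-compound outputs were EC50 and percent maximal response.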

[3] = adenylyl cyclase inhibition, read-out: cAMP EC50
[4] = maximal response for adenylyl cyclase inhibition
[5] = maximal response for β-arrestin recruitment
[6] = cAMP EC50, adenylyl cyclase inhibition

T1 sequence (P35372 whole entry): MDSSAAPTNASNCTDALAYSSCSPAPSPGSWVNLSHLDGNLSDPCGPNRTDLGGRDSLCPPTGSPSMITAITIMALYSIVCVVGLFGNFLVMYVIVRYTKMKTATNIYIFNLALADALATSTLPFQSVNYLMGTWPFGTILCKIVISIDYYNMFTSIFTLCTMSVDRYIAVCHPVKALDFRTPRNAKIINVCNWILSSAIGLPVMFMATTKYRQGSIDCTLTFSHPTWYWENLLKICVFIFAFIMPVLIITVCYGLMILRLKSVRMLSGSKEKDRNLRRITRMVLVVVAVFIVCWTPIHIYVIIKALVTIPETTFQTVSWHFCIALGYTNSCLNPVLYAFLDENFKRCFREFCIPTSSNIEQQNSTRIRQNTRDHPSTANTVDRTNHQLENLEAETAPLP

Row | Structure (SMILES) | EC50 [1, 3] | cAMP Max. Resp. [1, 4] | β-arr Max. Resp. [2, 5] | EC50 ([2]; β-arrestin recruitment) | EC50 [1, 6] | cAMP Max. Resp. ([1]; maximal response, adenylyl cyclase inhibition) | β-arr Max. Resp. ([2]; maximal response, β-arrestin recruitment)
1 | CC1CCN(S(=O)(=O)c2ccc(Cl)cc2)C1c1ccc(Cl)c(C(F)(F)F)c1 (mixture of isomers) [Compound 87] | > 2.1 µM | D (D represents a maximal response of < 40%) | F (F represents a maximal response of > 60%) | > 2.1 µM | – | – | –
2 | Fc1cnc(Cl)nc1N1CCCCC1c1cc(Cl)ccn1 (centres unmarked) [compound 408] | – | D (D represents a maximal response of < 40%) | D (D represents a maximal response of < 40%) | < 0.7 µM | < 0.7 µM | – | –
3 | COc1ccc(C2CCCCN2c2ccnc(Cl)n2)cc1Br (centres unmarked) [compound 226] | – | F (F represents a maximal response of > 60%) | F (F represents a maximal response of > 60%) | > 2.1 µM | > 2.1 µM | – | –
4 | Fc1cnc(Cl)nc1N1CCCCC1c1cnccc1C(F)(F)F (centres unmarked) [compound 332] | – | D (D represents a maximal response of < 40%) | D (D represents a maximal response of < 40%) | < 0.7 µM | < 0.7 µM | – | –
5 | Fc1cc(C2CC(C(F)(F)F)CN2c2nc(Cl)ncc2F)cc(C(F)(F)F)c1 (centres unmarked) [compound 457] | > 2.1 µM | – | – | > 2.1 µM | – | E (E represents a maximal response of 40-60%) | F (F represents a maximal response of > 60%)
6 | Fc1ccc(C2CCCCN2c2nc(Cl)ncc2F)cc1 (centres unmarked) [compound 127] | – | E (E represents a maximal response of 40-60%) | F (F represents a maximal response of > 60%) | < 0.7 µM | 0.7 to 2.1 µM | – | –
7 | COc1ccc(C2CCCCN2c2nc(Cl)ncc2OC)cc1Br (centres unmarked) [compound 235] | – | F (F represents a maximal response of > 60%) | F (F represents a maximal response of > 60%) | > 2.1 µM | > 2.1 µM | – | –
8 | Cc1cc(C2CCCCN2c2nc(Cl)ncc2F)ccc1F (centres unmarked) [compound 130] | – | E (E represents a maximal response of 40-60%) | F (F represents a maximal response of > 60%) | < 0.7 µM | 0.7 to 2.1 µM | – | –
9 | Fc1ccc(C2CCCCN2Cc2cc(Cl)cc(Cl)c2)cc1Cl (centres unmarked) [compound 151] | – | D (D represents a maximal response of < 40%) | F (F represents a maximal response of > 60%) | > 2.1 µM | > 2.1 µM | – | –
10 | COc1ccc(C2CCCCN2c2cccc(C(F)(F)F)n2)cc1Br (centres unmarked) [compound 227] | – | F (F represents a maximal response of > 60%) | F (F represents a maximal response of > 60%) | > 2.1 µM | > 2.1 µM | – | –
11 | COc1ccc(C2C(C(F)(F)F)CCN2S(=O)(=O)c2ccc(Cl)cc2)cc1Br (mixture of isomers) [Compound 90] | > 2.1 µM | D (D represents a maximal response of < 40%) | D (D represents a maximal response of < 40%) | > 2.1 µM | – | – | –
12 | Fc1cnc(Cl)nc1N1CCCCC1c1ccncn1 (centres unmarked) [compound 391] | – | D (D represents a maximal response of < 40%) | D (D represents a maximal response of < 40%) | < 0.7 µM | < 0.7 µM | – | –
13 | Cn1cnc2cc(C(F)(F)F)cc(C3CCCCN3c3nc(Cl)ncc3F)c21 (centres unmarked) [compound 300] | – | F (F represents a maximal response of > 60%) | E (E represents a maximal response of 40-60%) | > 2.1 µM | > 2.1 µM | – | –
14 | O=S(=O)(c1ccc(Cl)cc1)N1CCCCC1c1ccc(Cl)c(C(F)(F)F)c1 (single isomer, unassigned) [compound 220] | 0.7 to 2.1 µM | D (D represents a maximal response of < 40%) | F (F represents a maximal response of > 60%) | > 2.1 µM | – | – | –
15 | O=S(=O)(c1ccc(Cl)cc1)N1CCOCC1c1ccc(F)c(Br)c1 (racemic) [Compound 185] | > 2.1 µM | D (D represents a maximal response of < 40%) | F (F represents a maximal response of > 60%) | 0.7 to 2.1 µM | – | – | –
16 | Fc1cnc(Cl)nc1N1CCCCCC1c1cccc(C(F)(F)F)n1 (centres unmarked) [compound 253] | > 2.1 µM | E (E represents a maximal response of 40-60%) | F (F represents a maximal response of > 60%) | > 2.1 µM | – | – | –
17 | Cc1ncccc1C1CCCCN1c1nc(Cl)ncc1F (centres unmarked) [compound 407] | – | D (D represents a maximal response of < 40%) | D (D represents a maximal response of < 40%) | < 0.7 µM | < 0.7 µM | – | –
